For data set [1], the target named is T1, Receptor-type tyrosine-protein phosphatase C (Homo sapiens) (UniProt P08575).
T1 sequence (whole entry): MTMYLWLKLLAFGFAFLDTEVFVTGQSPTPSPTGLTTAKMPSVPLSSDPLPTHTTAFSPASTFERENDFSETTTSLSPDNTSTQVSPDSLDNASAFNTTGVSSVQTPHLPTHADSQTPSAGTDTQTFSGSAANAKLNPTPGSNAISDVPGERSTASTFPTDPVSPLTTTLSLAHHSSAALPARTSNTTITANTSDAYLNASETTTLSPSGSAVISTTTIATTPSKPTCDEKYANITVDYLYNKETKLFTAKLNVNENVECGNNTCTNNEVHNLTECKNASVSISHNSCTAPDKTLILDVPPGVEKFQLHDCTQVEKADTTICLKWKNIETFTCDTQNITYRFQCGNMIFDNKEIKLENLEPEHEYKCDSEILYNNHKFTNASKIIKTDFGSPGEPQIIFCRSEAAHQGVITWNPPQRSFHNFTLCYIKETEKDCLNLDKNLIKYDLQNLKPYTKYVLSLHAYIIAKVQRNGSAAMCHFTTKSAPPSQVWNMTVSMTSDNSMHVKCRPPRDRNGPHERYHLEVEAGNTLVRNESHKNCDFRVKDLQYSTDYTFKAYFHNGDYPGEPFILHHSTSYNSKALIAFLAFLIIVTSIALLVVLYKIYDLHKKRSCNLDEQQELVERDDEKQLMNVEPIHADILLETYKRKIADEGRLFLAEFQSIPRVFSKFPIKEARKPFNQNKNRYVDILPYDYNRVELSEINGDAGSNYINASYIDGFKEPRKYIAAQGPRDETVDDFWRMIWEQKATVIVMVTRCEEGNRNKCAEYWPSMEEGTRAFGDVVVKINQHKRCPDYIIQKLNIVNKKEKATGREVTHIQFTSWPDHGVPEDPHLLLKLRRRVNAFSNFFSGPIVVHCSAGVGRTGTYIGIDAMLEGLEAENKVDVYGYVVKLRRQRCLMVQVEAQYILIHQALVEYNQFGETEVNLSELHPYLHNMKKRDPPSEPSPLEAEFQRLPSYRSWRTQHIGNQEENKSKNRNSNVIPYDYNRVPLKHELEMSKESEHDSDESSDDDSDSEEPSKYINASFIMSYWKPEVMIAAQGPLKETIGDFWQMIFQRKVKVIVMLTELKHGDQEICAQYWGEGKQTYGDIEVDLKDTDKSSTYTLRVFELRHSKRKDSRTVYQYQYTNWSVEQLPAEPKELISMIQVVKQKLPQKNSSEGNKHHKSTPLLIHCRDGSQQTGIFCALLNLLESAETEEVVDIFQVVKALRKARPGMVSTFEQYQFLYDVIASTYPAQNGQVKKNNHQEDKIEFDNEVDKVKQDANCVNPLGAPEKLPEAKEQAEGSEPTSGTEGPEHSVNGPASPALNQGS
Description: (§1) Kinetic constant for CD45 protein tyrosine phosphatase inhibition was evaluated using malachite green assay.

Data set [2] concerns the target T1, Receptor-type tyrosine-protein phosphatase C (Homo sapiens). Description: Compound was evaluated for inhibitory activity against CD45 protein tyrosine phosphatase at a concentration of 200 uM; no activity.
Data set [3] has the same target. Kind of data set: (§2) Kinetic constant for CD45 Protein-tyrosine phosphatase inhibition was evaluated using malachite green assay.
Compound in data set [4]: CC(=O)N[C@@H](Cc1ccccc1)C(=O)N[C@H](C(=O)N[C@@H](C)C(=O)N[C@H](C(=O)N[C@@H](CCC(=O)O)C(=O)N1CCC[C@H]1C(=O)N[C@@H](CCC(N)=O)C(=O)N[C@@H](Cc1ccc(OP(=O)(O)O)cc1)C(=O)N[C@@H](CCC(N)=O)C(=O)N1CCC[C@H]1C(=O)NCC(=O)N[C@@H](CCC(N)=O)C(=O)N[C@@H](CC(N)=O)C(=O)N[C@@H](CC(C)C)C(N)=O)[C@@H](C)O)[C@@H](C)O
The data set is described as §2.

Compound in data set [5]: CC(=O)N1CCC[C@H]1C(=O)N[C@@H](CCC(N)=O)C(=O)N[C@@H](Cc1ccc(OP(=O)(O)O)cc1)C(=O)N[C@@H](CCC(N)=O)C(=O)N1CCC[C@@H]1C(N)=O
The data set is described as §1.

Compound in data set [6]: CC(=O)N1CCC[C@H]1C(=O)N[C@@H](CCC(N)=O)C(=O)N[C@@H](Cc1ccc(OP(=O)(O)O)cc1)C(=O)N[C@@H](CCC(N)=O)C(N)=O
The data set is described as §1.

Compound in data set [7]: CC(=O)N[C@@H](C)C(=O)N[C@H](C(=O)N[C@@H](CCC(=O)O)C(=O)N1CCC[C@H]1C(=O)N[C@@H](CCC(N)=O)C(=O)N[C@@H](Cc1ccc(OP(=O)(O)O)cc1)C(=O)N[C@@H](CCC(N)=O)C(=O)N1CCC[C@H]1C(=O)NCC(=O)N[C@@H](CCC(N)=O)C(=O)N[C@@H](CC(N)=O)C(=O)N[C@@H](CC(C)C)C(N)=O)[C@@H](C)O
The data set is described as §1.

Compound in data set [8]: CC(=O)N[C@@H](CCC(=O)O)C(=O)N1CCC[C@H]1C(=O)N[C@@H](CCC(N)=O)C(=O)N[C@@H](Cc1ccc(OP(=O)(O)O)cc1)C(=O)N[C@@H](CCC(N)=O)C(=O)N1CCC[C@H]1C(=O)NCC(=O)N[C@@H](CCC(N)=O)C(=O)N[C@@H](CC(N)=O)C(=O)N[C@@H](CC(C)C)C(N)=O
The data set is described as §1.

Compound in data set [9]: CC(=O)N[C@@H](CCC(N)=O)C(=O)N[C@@H](Cc1ccc(OP(=O)(O)O)cc1)C(=O)N[C@@H](CCC(N)=O)C(=O)N1CCC[C@@H]1C(N)=O
The data set is described as §1.

Compound in data set [10]: CC(=O)N[C@@H](CCC(N)=O)C(=O)N[C@@H](Cc1ccc(OP(=O)(O)O)cc1)C(=O)N[C@@H](CCC(N)=O)C(=O)N1CCC[C@H]1C(=O)NCC(=O)N[C@@H](CCC(N)=O)C(=O)N[C@@H](CC(N)=O)C(=O)N[C@@H](CC(C)C)C(N)=O
The description is as §1.

Compound in data set [11]: CC(=O)N[C@@H](Cc1ccc(OP(=O)(O)O)cc1)C(N)=O
Described as §1.

Compound in data set [12]: O=[N+]([O-])c1ccc(OP(=O)(O)O)cc1
Described as §1.

Active and inactive are the calls of the source. The rule behind the calls is not given here. Non-standard residues stand in square brackets, D forms with d. Residues, ends and D or L forms follow the SMILES beside them. *: point of attachment. pY = N[C@@H](Cc1ccc(OP(=O)(O)O)cc1)C(=O)O; Cbz = O=C(OCc1ccccc1)*

Molecule `CC(=O)N[C@@H](CCC(=O)O)C(=O)N1CCC[C@H]1C(=O)N[C@@H](CCC(N)=O)C(=O)N[C@@H](Cc1ccc(OP(=O)(O)O)cc1)C(=O)N[C@@H](CCC(N)=O)C(=O)N1CCC[C@H]1C(=O)NCC(=O)N[C@@H](CCC(N)=O)C(=O)N[C@@H](CC(N)=O)C(=O)N[C@@H](CC(C)C)C(N)=O` (Ac-EPQ[pY]QPGQNL-NH2) yielded a k cat in [1] of 4.22 s⁻¹. The same measure, in the same setting: the value for `O=[N+]([O-])c1ccc(OP(=O)(O)O)cc1` was 3.95 s⁻¹. `NC(=O)[C@H](Cc1ccc(O)cc1)NC(=O)OCc1ccccc1`: the outcome in [2] was inactive. The same measure, in the same setting: to `NC(=O)CC[C@H](NC(=O)[C@H](Cc1ccc(O)cc1)NC(=O)[C@H](CCC(N)=O)NC(=O)OCc1ccccc1)C(N)=O` (Cbz-Gln-Tyr-Gln-NH2) belongs “inactive”; to `NC(=O)[C@H](Cc1ccc(OC(=O)CCl)cc1)NC(=O)OCc1ccccc1`, “inactive”. The molecule `CC(=O)N[C@@H](Cc1ccccc1)C(=O)N[C@H](C(=O)N[C@@H](C)C(=O)N[C@H](C(=O)N[C@@H](CCC(=O)O)C(=O)N1CCC[C@H]1C(=O)N[C@@H](CCC(N)=O)C(=O)N[C@@H](Cc1ccc(OP(=O)(O)O)cc1)C(=O)N[C@@H](CCC(N)=O)C(=O)N1CCC[C@H]1C(=O)NCC(=O)N[C@@H](CCC(N)=O)C(=O)N[C@@H](CC(N)=O)C(=O)N[C@@H](CC(C)C)C(N)=O)[C@@H](C)O)[C@@H](C)O` (Ac-FTATEPQ[pY]QPGQNL-NH2) yielded a k cat in data set [3] of 3.95 s⁻¹. As to `CC(=O)N[C@@H](Cc1ccc(OP(=O)(O)O)cc1)C(N)=O`, the k cat in data set [1] was determined as 3.95 s⁻¹. On the same count and under the same terms, to `CC(=O)N1CCC[C@H]1C(=O)N[C@@H](CCC(N)=O)C(=O)N[C@@H](Cc1ccc(OP(=O)(O)O)cc1)C(=O)N[C@@H](CCC(N)=O)C(N)=O` (Ac-PQ[pY]Q-NH2) belongs 3.95 s⁻¹. Same read-out and setting: the value for `CC(=O)N[C@@H](CCC(N)=O)C(=O)N[C@@H](Cc1ccc(OP(=O)(O)O)cc1)C(=O)N[C@@H](CCC(N)=O)C(=O)N1CCC[C@@H]1C(N)=O` was 3.95 s⁻¹. Take `NC(=O)[C@H](Cc1ccc(OP(=O)(O)CCl)cc1)NC(=O)OCc1ccccc1`: the outcome in data set [2] was inactive. Molecule `CC(=O)N[C@@H](CCC(N)=O)C(=O)N[C@@H](Cc1ccc(OP(=O)(O)O)cc1)C(=O)N[C@@H](CCC(N)=O)C(=O)N1CCC[C@H]1C(=O)NCC(=O)N[C@@H](CCC(N)=O)C(=O)N[C@@H](CC(N)=O)C(=O)N[C@@H](CC(C)C)C(N)=O` (Ac-Q[pY]QPGQNL-NH2) displayed a k cat in data set [1] of 4.82 s⁻¹. The same measure, in the same setting: to `CC(=O)N1CCC[C@H]1C(=O)N[C@@H](CCC(N)=O)C(=O)N[C@@H](Cc1ccc(OP(=O)(O)O)cc1)C(=O)N[C@@H](CCC(N)=O)C(=O)N1CCC[C@@H]1C(N)=O` belongs 3.95 s⁻¹. The same measure, in the same setting: the value for `CC(=O)N[C@@H](C)C(=O)N[C@H](C(=O)N[C@@H](CCC(=O)O)C(=O)N1CCC[C@H]1C(=O)N[C@@H](CCC(N)=O)C(=O)N[C@@H](Cc1ccc(OP(=O)(O)O)cc1)C(=O)N[C@@H](CCC(N)=O)C(=O)N1CCC[C@H]1C(=O)NCC(=O)N[C@@H](CCC(N)=O)C(=O)N[C@@H](CC(N)=O)C(=O)N[C@@H](CC(C)C)C(N)=O)[C@@H](C)O` (Ac-ATEPQ[pY]QPGQNL-NH2) was 4.93 s⁻¹. Take `NC(=O)CC[C@H](NC(=O)[C@H](Cc1ccc(OC[C@@H]2CO2)cc1)NC(=O)[C@H](CCC(N)=O)NC(=O)OCc1ccccc1)C(N)=O`: the outcome in data set [2] was inactive. As to `NC(=O)[C@H](Cc1ccc(OC[C@H]2CO2)cc1)NC(=O)OCc1ccccc1`, the result in [2] was inactive. The same measure, in the same setting: to `NC(=O)[C@H](Cc1ccc(OC[C@@H]2CO2)cc1)NC(=O)OCc1ccccc1` belongs “inactive”.

B1: Receptor-type tyrosine-protein phosphatase C (Homo sapiens), P08575 (protein)
chain: T1 sequence (whole entry)
A word on the Km: it is the substrate concentration at which the rate is half of its maximum. Take B1: the Km in data set [4] was found to be 278 µM; in data set [5], 278 µM; in [6], 278 µM; in data set [7] it was 143 µM; in data set [8], 102 µM; in data set [9], 278 µM. For the same molecule, the Michaelis constant (Km) in data set [10] came out at 172 µM; in data set [11] it was 278 µM; in data set [12], 278 µM.

The values are drawn from ChEMBL document CHEMBL1128649, “CD45 protein tyrosine phosphatase: Determination of minimal peptide length for substrate recognition and synthesis of some tyrosine-based electrophiles as potential active-site directed irreversible inhibitors” (Bioorg Med Chem Lett, 1995).
